Source: patent US8177896B2, “Antifouling furan-2-one derivatives” (The Hong Kong University of Science and Technology, priority 2008, dated 2012)
≈ marks a conversion by molar mass, not a printed value. Like-named read-outs stand apart in the source and are kept apart here.

Legend:
[1] = test system: Balanus amphitrite larvae; test: Larval settlement bioassay, barnacle Balanus amphitrite cyprids; type: in vivo; conditions: for inhibition of larval settlement (in words) / concentration at which significant inhibition of larval settlement was observed: B. amphitrite; for concentration at which significant inhibition of larval settlement was observed: compared with controls; for toxicity rating from LC50/EC50 ratio: according to Avelin et al. 1993 and Rittschof et al. 1994, ratios for all tested larvae
Protocol: (§1) The nauplii were reared in freshly filtered nature seawater (FSW, 0.45 μm, 32 S salinity) and fed with Chaetoceros gracilis Schutt at 24° C. in the Coastal Marine Laboratory the Hong Kong University of Science and Technology (HKUST). Cyprids were stored for 2 days at 8° C. (aged cyprids) prior to being used in the bioassays. Ten μl of each test sample dissolved in dimethyl sulfoxide (DMSO) were transferred into a well in 24-well polystyrene plate after the addition of 1 ml of FSW. The control wells contained 1 ml of FSW and 10 μl of DMSO. About 15 cyprids were added in each well with triplicate samples being tested.

[2] = as above; type: in vivo; conditions: Balanus amphitrite (barnacle), cyprid larvae, in vivo, other: immersion, sample added to the seawater in the well
Protocol: as §1

[3] = Larval settlement bioassay, Hydroides elegans competent larvae; type: in vivo; conditions: competent larvae, in vivo, other: immersion, sample added to the seawater in the well; Hydroides elegans; highest concentration examined causing <50% death of larvae
Protocol: (§2) The 24-well plates were incubated at 28° C. for 24 h under a 15 h light/9 h dark photoperiod. The percentage of larval settlement and larval mortality was determined by counting the settled, live individuals under a dissecting microscope and expressing the result as a proportion of the total number of larvae in the well.

Hydroides elegans larvae = test: as above; type: in vivo; conditions: for concentration at which significant inhibition of larval settlement was observed / inhibition of larval settlement (in words): H. elegans; for concentration at which significant inhibition of larval settlement was observed: compared with controls; for EC50: Hydroides elegans, 24 h, mean of at least three replicates, read-out: EC50 against larval settlement
Protocol: as §2

Bugula neritina larvae = test: Larval settlement bioassay, Bugula neritina; conditions: for inhibition of larval settlement (in words): B. neritina
[4] = Degradation in buffer solutions and seawater; type: physicochemical
in vivo = conditions: Bugula neritina, larvae
[5] = Amphibalanus amphitrite, Table 3, Balanus amphitrite larvae, value ± spread, read-out: EC50
[6] = Table 3, Balanus amphitrite larvae
[7] = Amphibalanus amphitrite, 24 h, Balanus amphitrite, 24 h, mean of at least three replicates, read-out: EC50 against larval settlement
[8] = Balanus amphitrite, highest concentration examined causing <50% death of larvae
[9] = Table 3, Balanus amphitrite larvae, value ± spread

CC(O)C(C)(O)CCCC1C=CC(=O)O1 (single isomer, unassigned) [Compound 11]
EC50 [1, 5]: > 100 µg/mL | LC50 at 24 h [2, 6]: > 100 µg/mL

CC(C)(O)CCCCCC1C=CC(=O)O1 (centres unmarked) [Compound 4]
EC50 [1, 7]: > 100 µg/mL | EC50 [1, 5]: > 100 µg/mL | inhibition of larval settlement (in words) [1]: efficient against the larval settlements especially for B. amphitrite | LC50 at 24 h [2, 8]: > 140 µg/mL | LC50 at 24 h [2, 6]: > 140 µg/mL | LC50 at 24 h [3]: > 40 µg/mL | concentration at which significant inhibition of larval settlement was observed (Hydroides elegans larvae): 8 µg/mL | EC50 (Hydroides elegans larvae): 12.7 µg/mL (≈ 59.8 µM)

CC(O)C(C)CCCCCC1C=CC(=O)O1 (centres unmarked) [Compound 2]
EC50 [1, 7]: 9.65 µg/mL (≈ 42.6 µM) | EC50 [1, 5]: 9.65 ± 1.5 µg/mL (≈ 42.6 µM) | concentration at which significant inhibition of larval settlement was observed [1]: 10 µg/mL | LC50 at 24 h [2, 8]: > 100 µg/mL | LC50 at 24 h [2, 6]: > 100 µg/mL | LC50 at 24 h [3]: > 100 µg/mL | concentration at which significant inhibition of larval settlement was observed (Hydroides elegans larvae): 5 µg/mL | EC50 (Hydroides elegans larvae): 4.4 µg/mL (≈ 19.4 µM)

CC(=O)C(C)CCCCCC1C=CC(=O)O1 (centres unmarked) [Compound 3]
EC50 [1, 7]: 8.67 µg/mL (≈ 38.7 µM) | EC50 [1, 5]: 8.67 ± 2.73 µg/mL (≈ 38.7 µM) | concentration at which significant inhibition of larval settlement was observed [1]: 25 µg/mL | LC50 at 24 h [2, 8]: > 100 µg/mL | LC50 at 24 h [2, 6]: > 100 µg/mL | LC50 at 24 h [3]: > 100 µg/mL | concentration at which significant inhibition of larval settlement was observed (Hydroides elegans larvae): 5 µg/mL | EC50 (Hydroides elegans larvae): 5.6 µg/mL (≈ 25 µM)

CC(O)C(C)(O)CCCC1C=CC(=O)O1 (centres unmarked) [Compound 10]
LC50 [1, 6]: >100 µg/mL | EC50 [1, 9]: >100 µg/mL

CC(O)C(C)(O)CCCC1C=CC(=O)O1 (centres unmarked) [Compound 8]
LC50 [1, 6]: >100 µg/mL | EC50 [1, 9]: >100 µg/mL

CC(CCCCCC1C=CC(=O)O1)C(C)OC1CCCCO1 (centres unmarked) [Compound 5]
EC50 [1, 7]: 3.6 µg/mL (≈ 11.6 µM) | EC50 [1, 5]: 3.6 ± 0.56 µg/mL (≈ 11.6 µM) | inhibition of larval settlement (in words) [1]: distinct inhibition effects | toxicity rating from LC50/EC50 ratio [1]: nontoxic or low toxic compound | LC50 at 24 h [2, 8]: > 80 µg/mL | LC50 at 24 h [2, 6]: > 80 µg/mL | LC50 at 24 h [3]: > 100 µg/mL | inhibition of larval settlement (in words) (Hydroides elegans larvae): distinct inhibition effects | EC50 (Hydroides elegans larvae): 6.4 µg/mL (≈ 20.6 µM) | inhibition of larval settlement (in words) (Bugula neritina larvae): distinct inhibition effects

CC(O)C(C)(O)CCCC1C=CC(=O)O1 (centres unmarked) [Compound 7]
LC50 [1, 6]: >25 µg/mL | EC50 [1, 9]: 4.82 ± 1.25 µg/mL (≈ 22.5 µM)

CC(O)C(C)(O)CCCC1C=CC(=O)O1 (centres unmarked) [Compound 9]
LC50 [1, 6]: >100 µg/mL | EC50 [1, 9]: >100 µg/mL

CCC(C)(O)CCCCCC1C=CC(=O)O1 (centres unmarked) [Compound 1]
EC50 [1, 7]: 14.8 µg/mL (≈ 65.4 µM) | EC50 [1, 5]: 14.8 ± 5.54 µg/mL (≈ 65.4 µM) | concentration at which significant inhibition of larval settlement was observed [1]: 10 µg/mL | LC50 at 24 h [2, 8]: > 100 µg/mL | LC50 at 24 h [2, 6]: > 100 µg/mL | LC50 at 24 h [3]: > 100 µg/mL | concentration at which significant inhibition of larval settlement was observed (Hydroides elegans larvae): 10 µg/mL | EC50 (Hydroides elegans larvae): 12 µg/mL (≈ 53 µM)

CCCCCCCCC1C=CC(=O)O1 (centres unmarked) [Compound 6, 5-octylfuran-2-one]
EC50 [1, 7]: 0.52 µg/mL (≈ 2.65 µM) | EC50 [1, 5]: 0.52 ± 0.06 µg/mL (≈ 2.65 µM) | inhibition of larval settlement (in words) [1]: distinct inhibition effects | toxicity rating from LC50/EC50 ratio [1]: nontoxic or low toxic compound | LC50 at 24 h [2, 8]: > 50 µg/mL | LC50 at 24 h [2, 6]: > 50 µg/mL | degradation in natural seawater [4]: can be easily degradated in natural seawater | LC50 at 24 h [3]: > 2 µg/mL | inhibition of larval settlement (in words) (Hydroides elegans larvae): distinct inhibition effects | EC50 (Hydroides elegans larvae): 0.017 µg/mL (≈ 0.0866 µM) | inhibition of larval settlement (in words) (Bugula neritina larvae): distinct inhibition effects | EC50 against larval settlement (Bugula neritina larvae; Bugula neritina, mean of at least three replicates): 0.2 µg/mL (≈ 1.02 µM) | LC50 (in vivo): > 50 µg/mL
